Values belong to the molecule of their own block, whether it stands above or below them.
How the values were obtained:
Format in all cases: biochemical
[1] = target: T1, LATS1 (Homo sapiens, UniProt O95835); assay: Kinase Assay method (Fluorospark Kinase/ADP Multi-Assay Kit)
T1 construct: purchased Carna Biosciences
T1 sequence (O95835 589-1130 limits assumed): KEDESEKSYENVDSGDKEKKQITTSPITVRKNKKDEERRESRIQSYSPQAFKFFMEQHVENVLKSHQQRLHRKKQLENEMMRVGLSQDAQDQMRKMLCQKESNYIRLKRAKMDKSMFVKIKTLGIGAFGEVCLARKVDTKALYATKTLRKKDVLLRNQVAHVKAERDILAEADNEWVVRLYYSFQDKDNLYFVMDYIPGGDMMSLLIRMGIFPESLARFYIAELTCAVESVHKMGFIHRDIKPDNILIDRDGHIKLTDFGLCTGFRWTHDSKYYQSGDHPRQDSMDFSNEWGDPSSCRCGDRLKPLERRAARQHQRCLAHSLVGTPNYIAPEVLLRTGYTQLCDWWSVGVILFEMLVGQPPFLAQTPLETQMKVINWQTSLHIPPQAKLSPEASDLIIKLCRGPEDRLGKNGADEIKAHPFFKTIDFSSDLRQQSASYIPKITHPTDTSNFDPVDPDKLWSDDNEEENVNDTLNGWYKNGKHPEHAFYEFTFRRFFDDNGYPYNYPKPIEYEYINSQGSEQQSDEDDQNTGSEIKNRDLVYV
Experimental: (§1) For compound k-1:B-1 (racemate), GA-002A, GA-002B, GA-005A and GA-005B, inhibitory activity evaluation (calculation of IC50) was performed on LATS1 and LATS2 (manufactured by Carna Biosciences). The activity was measured using the Kinase Assay method described below. The compounds were added such that the test concentration of k-1:B-1 (racemate), GA-002A, GA-002B, GA-005A and GA-005B was in 8 steps (10 μM, 1 μM, 100 nM, […], 10 nM, 3 nM, 1 nM, 0.3 nM) from the final concentration of 10 μM to 0.3 nM.
(§2) As the analysis method of the data, the mean signal of the control well containing reaction components other than the evaluation compound was set to 0% inhibition, the mean signal without enzyme addition was set to 100% inhibition, and the inhibition rate was calculated from the mean signal of 2 wells of each test substance test. IC50 value was calculated using EXSUS (version 7.1.6, manufactured by CAC EXICARE Corporation).
(§3) 2 μL of a compound of the present invention solution at 2.5-fold concentration, 1 μL of substrate at 5-fold concentration (SGKtide: NH2—CKKRNRRLSVA-COOH, manufactured by SignalChem), ATP (manufactured by Sigma-Aldrich), MgCl2 (manufactured by FUJIFILM Wako Pure Chemical Corporation) solution (final concentration 10 μM, 400 μM or 5 mM), and 2 μL of kinase solution at 2.5-fold concentration (final concentration of LATS1 or LATS2 5 μg/mL), each prepared with assay buffer (20 mM HEPES, 0.01% Triton X-100, 2 mM DTT, pH 7.5), were mixed in the wells of a polypropylene 384-well plate (manufactured by Greiner Bio-One, #784900) and reacted at room temperature for 5 hr. Successively, 5 μL detection solution (Fluorospark (registered trade mark)Kinase/ADP Multi-Assay Kit; manufactured by FUJIFILM Wako Pure Chemical Corporation) was added, and the mixture was reacted at room temperature 30 min. Successively, 5 μL of a reaction quenching liquid (Fluorospark (registered trade mark) Kinase/ADP Multi-Assay Kit; manufactured by FUJIFILM Wako Pure Chemical Corporation) was added to discontinue the reaction. Thereafter, the ADP concentration of the reaction solution was quantified by EnSpire (manufactured by PerkinElmer) to detect the kinase reaction.

[2] = target: T2, LATS2 (Homo sapiens, UniProt Q9NRM7); assay: as above
T2 construct: purchased Carna Biosciences
T2 sequence (Q9NRM7 553-1088 limits assumed): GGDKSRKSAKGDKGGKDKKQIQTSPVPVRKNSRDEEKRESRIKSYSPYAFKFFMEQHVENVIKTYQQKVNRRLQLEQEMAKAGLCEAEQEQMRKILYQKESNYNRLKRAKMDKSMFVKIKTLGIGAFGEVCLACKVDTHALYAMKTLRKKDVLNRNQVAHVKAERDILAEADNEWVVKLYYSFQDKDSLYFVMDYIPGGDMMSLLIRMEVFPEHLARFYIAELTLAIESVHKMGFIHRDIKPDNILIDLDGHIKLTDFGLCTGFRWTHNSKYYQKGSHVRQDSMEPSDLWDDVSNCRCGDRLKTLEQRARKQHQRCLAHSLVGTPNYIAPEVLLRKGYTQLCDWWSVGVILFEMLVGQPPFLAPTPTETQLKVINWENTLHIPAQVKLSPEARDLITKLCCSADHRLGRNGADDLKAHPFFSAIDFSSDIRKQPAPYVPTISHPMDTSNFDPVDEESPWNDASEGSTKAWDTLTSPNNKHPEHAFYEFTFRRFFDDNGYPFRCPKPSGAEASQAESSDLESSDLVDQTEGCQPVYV
Experimental: as §1, §2, §3

[3] = target: T3, LATS2 (Homo sapiens, UniProt Q9NRM7); assay: Off-chip Mobility Shift Assay (MSA method), kinase inhibition; details: MSA method; 10 steps from 10 μM to 0.3 nM
T3 sequence (Q9NRM7 1-1088): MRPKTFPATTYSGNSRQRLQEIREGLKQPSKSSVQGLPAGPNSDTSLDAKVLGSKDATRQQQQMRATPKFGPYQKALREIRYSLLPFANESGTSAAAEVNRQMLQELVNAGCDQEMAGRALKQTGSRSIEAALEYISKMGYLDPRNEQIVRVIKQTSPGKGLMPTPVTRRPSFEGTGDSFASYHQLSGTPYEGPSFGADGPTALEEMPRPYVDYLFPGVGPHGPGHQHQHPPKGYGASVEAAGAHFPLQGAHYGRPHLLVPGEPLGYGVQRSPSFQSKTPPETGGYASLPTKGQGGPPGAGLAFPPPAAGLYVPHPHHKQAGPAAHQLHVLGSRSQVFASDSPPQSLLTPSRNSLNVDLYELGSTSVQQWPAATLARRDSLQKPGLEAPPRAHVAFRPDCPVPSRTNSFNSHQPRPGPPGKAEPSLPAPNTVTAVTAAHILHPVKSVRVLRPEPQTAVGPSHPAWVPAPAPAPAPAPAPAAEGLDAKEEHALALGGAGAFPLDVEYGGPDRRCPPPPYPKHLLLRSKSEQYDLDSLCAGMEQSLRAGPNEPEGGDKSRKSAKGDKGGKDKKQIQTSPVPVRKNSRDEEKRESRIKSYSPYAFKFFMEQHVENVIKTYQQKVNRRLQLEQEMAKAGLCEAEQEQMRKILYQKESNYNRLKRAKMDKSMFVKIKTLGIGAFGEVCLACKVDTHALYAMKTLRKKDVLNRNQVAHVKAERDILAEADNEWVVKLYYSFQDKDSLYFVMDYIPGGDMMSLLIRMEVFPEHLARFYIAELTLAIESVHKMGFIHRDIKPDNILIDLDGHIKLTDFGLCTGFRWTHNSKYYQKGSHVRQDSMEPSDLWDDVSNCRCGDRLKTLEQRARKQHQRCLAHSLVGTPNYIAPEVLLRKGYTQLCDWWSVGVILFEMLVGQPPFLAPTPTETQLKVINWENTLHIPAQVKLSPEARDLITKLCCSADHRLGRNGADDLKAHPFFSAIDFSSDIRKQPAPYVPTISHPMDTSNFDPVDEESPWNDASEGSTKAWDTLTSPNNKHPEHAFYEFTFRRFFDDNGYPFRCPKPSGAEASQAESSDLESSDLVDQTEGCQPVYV
Experimental: For compound k-1:B-1, inhibitory activity evaluation (calculation of 50% inhibitory concentration (IC50)) was performed on 8 kinds of kinases (CGK2, LATS2, MSK1, p70S6K, PKACα, PKACβ, SGK2, SGK3). The activity was measured using the Off-chip Mobility Shift Assay (MSA method) described below. The compound was added such that the test concentration of k-1:B-1 was in 10 steps from the final concentration of 10 μM to 0.3 nM.
As an analysis method of the data, the mean signal of the control well containing all reaction components was set to 0% inhibition, the mean signal without enzyme addition was set to 100% inhibition, and the inhibition rate was calculated from the mean signal of 2 wells of each test substance test. The IC50 value was obtained by approximating a plot based on the test substance concentration and inhibition rate to a 4 parameter logistics curve by using the Excel Solver add-in and by the non-linear least squares method.
(§4) 5 μL of k-1:B-1 solution at 4-fold concentration, 5 μL of substrate/ATP/metal solution at 4-fold concentration, and 10 μL of kinase solution at 2-fold concentration, each prepared with assay buffer (20 mM HEPES, 0.01% Triton X-100, 2 mM DTT, pH 7.5), were mixed in the wells of a polypropylene 384-well plate and reacted at room temperature for 1 or 5 hr. Successively, 70 μL of Termination Buffer (QuickScout Screening Assist MSA; Carna Biosciences) was added to discontinue the reaction. Then, the substrate peptide and the phosphorylated peptide in the reaction solution were separated and quantified by the LabChip system (Perkin Elmer). The kinase reaction was evaluated by the resultant product ratio (P/(P+S)) calculated from the substrate peptide peak height (S) and the phosphorylated peptide peak height (P).
For compounds k-1:H-7, k-1:H-1, k-1:D-1, k-1:J-1, and k-1:B-1, inhibitory rate at 100 nM was calculated on 8 kinds of kinases (CGK2, LATS2, MSK1, p70S6K, PKACα, PKACβ, SGK2, SGK3). The activity was measured using the MSA method. As an analysis method of the data, the mean signal of the control well containing all reaction components was set to 0% inhibition, the mean signal without enzyme addition was set to 100% inhibition, and the inhibition rate was calculated from the mean signal of 2 wells of each test substance test.
as §4, with “a compound” for “k-1:B-1”
For compounds k-1:I-1, k-1:D-1, k-1:J-1, k-1:H-1, k-1:H-7, k-1:B-1, k-5:H-1, k-1:H-3, k-1:D-4 and k-1:I-10, inhibitory activity evaluation (calculation of IC50) was performed on LATS2. The activity was measured using the Off-chip Mobility Shift Assay (MSA method) described below. The compounds were added such that the test concentration of each compound was in 10 steps from the final concentration of 10 μM to 0.3 nM.
5 μL of k-1:I-1, k-1:D-1, k-1:J-1, k-1:H-1, k-1:H-7, k-1:B-1, k-5:H-1, k-1:H-3, k-1:D-4 and k-1:I-10 solutions at 4-fold concentration, 5 μL of substrate/ATP/metal solution at 4-fold concentration, and 10 μL of kinase solution at 2-fold concentration, each prepared with assay buffer (20 mM HEPES, 0.01% Triton X-100, 2 mM DTT, pH 7.5), were mixed in the wells of a polypropylene 384-well plate and reacted at room temperature for 1 or 5 hr. […]

[4] = Kinase Assay method, 8 steps 10 μM to 0.3 nM

SMILES: Cc1c(O)ccc(C(CC(C)C)=NNC(=O)CNc2ccccc2)c1O [k-5:H-1]
- IC50 [3]: 21.6 nM

SMILES: CC/C(=N\NC(=O)NCc1ccccc1)c1ccc(O)c(C)c1O [k-1:I-1]
- IC50 [3]: 96 nM

Continued, values first:

- inhibition at 0.1 µM ([1]; 100 nM, read-out: LARS1 inhibitory rate (%)): 14%
- inhibition at 1 µM ([1]; 1000 nM, read-out: LARS1 inhibitory rate (%)): 45%
- IC50 [1, 4]: 1270 nM
- inhibition at 0.1 µM ([2]; 100 nM, read-out: LARS2 inhibitory rate (%)): 27%
- inhibition at 1 µM ([2]; 1000 nM, read-out: LARS2 inhibitory rate (%)): 55%
- IC50 [2, 4]: 652 nM
SMILES: CC/C(=N\NC(=O)[C@H](C)Nc1cccc(O)c1)c1ccc(O)c(C)c1O [GA-005B]

- IC50 [3]: 15 nM
SMILES: CCC(=NNC(=O)NC(C)c1cccc(O)c1)c1ccc(O)c(C)c1O (centres unmarked) [k-1:I-10]

- IC50 [3]: 46.9 nM
SMILES: CCC(=NNC(=O)CNc1cccc(C)c1)c1ccc(O)c(C)c1O [k-1:H-3]

- IC50 [3]: 33.4 nM
SMILES: CCC(=NNC(=O)CNc1ccccc1O)c1ccc(O)c(C)c1O [k-1:D-4]

Reference: patent publication US20210253518A1, “KINASE INHIBITOR” (NISSAN CHEMICAL CORPORATION, priority 2018, published 2021)
